# Earlier results, collected in patent US20240082270A1 (priority 2021, published 2024).
# Like-named read-outs stand apart in the source and are kept apart here.
# Tests used:
# CB1R = CB1R (Homo sapiens, UniProt P21554)
# SARS-CoV-2 [1] = details: lung epithelial cells
# human CBR = details: rather non-selectively
# [2] = stress and anxiety
# 5-HT1A receptor = 5-HT1A receptor (Homo sapiens, UniProt P08908)
# [3] = emulsified, small dispersed molecules
# mouse bladder = details: induced by acetylcholine
# SARS-CoV-2 [4] = details: cohort of human patients previously taking CBD
# [5] = after oral CBD in rats
# [6] = Lennox-Gastaut and Dravet syndrome
# [7] = pharmaceutical CBD, up to 1500 mg/day for 6 weeks
# SARS-CoV-2 spike protein [8] = target: T1, SARS-CoV-2 spike protein (Severe acute respiratory syndrome coronavirus 2, UniProt P0DTC2); details: allosteric as well as orthosteric ligands
# [9] = system: pseudovirus expressing the SARS-CoV-2 spike protein
# [10] = animal studies
# [11] = system: methicillin resistant Staphylococcus aureus (MRSA)
# [12] = dog; for adverse effects monitored by blood testing: 2 weeks of high twice daily dosing
# [13] = rat, in vivo
# [14] = mouse, in vivo
# [15] = mouse, in vivo; remark: listed apart in the source
# [16] = not given; remark: listed apart in the source
# [17] = system: store-operated calcium (Ca2+) entry (SOCE); details: human T lymphocytes
# SARS-CoV-2 spike protein [18] = target: T1, SARS-CoV-2 spike protein
# [19] = target: SARS-CoV-2 main proteases (Severe acute respiratory syndrome coronavirus 2, UniProt P0DTD1)
# melanoma = details: inhibition of E2F1 transcription
# mast cells = details: higher concentration
# [20] = after 30 min ingestion
# [21] = if stored properly
# [22] = not given; remark: listed apart in the source
# protein kinase B = details: oxidative muscles
# CB2R [23] = target: CB2R (Homo sapiens, UniProt P34972)
# [24] = target: acylglycerol lipase, MAG1 (Homo sapiens, UniProt Q99685); details: reversible mechanism
# mice = details: inhaled from ambient air
# [25] = chronic or single dose, versus control group without piperine
# CB2R [26] = target: T2, CB2R (Mus musculus, UniProt P47936); details: oral, <5 mg-kg^−1
# T2 construct: host or cells: wild-type mice, in vivo (oral dosing)
# [27] = not given; remark: listed apart in the source
# [28] = skin models
# CB1R, sequence (P21554 whole entry): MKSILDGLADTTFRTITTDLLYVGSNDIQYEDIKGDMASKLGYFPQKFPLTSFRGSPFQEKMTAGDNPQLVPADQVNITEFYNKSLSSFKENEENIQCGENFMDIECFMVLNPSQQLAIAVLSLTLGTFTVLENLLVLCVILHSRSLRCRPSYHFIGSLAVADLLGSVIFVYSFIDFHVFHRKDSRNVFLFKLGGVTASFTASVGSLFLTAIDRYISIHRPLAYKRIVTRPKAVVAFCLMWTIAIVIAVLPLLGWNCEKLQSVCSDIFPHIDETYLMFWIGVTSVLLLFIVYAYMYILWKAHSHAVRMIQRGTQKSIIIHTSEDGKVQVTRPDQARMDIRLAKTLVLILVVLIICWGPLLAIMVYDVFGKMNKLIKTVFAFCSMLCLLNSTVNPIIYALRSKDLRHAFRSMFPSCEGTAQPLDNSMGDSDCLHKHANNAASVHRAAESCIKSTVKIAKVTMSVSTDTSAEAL
# acylglycerol lipase, MAG1, sequence (Q99685 whole entry): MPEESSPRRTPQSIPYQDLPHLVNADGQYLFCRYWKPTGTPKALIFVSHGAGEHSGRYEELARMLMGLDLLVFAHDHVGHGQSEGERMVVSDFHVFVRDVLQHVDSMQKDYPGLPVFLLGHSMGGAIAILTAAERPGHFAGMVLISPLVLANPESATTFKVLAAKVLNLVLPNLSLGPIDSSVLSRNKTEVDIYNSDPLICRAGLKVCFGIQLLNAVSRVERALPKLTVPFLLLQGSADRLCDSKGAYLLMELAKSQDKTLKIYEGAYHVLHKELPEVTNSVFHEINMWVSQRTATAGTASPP
# 5-HT1A receptor, sequence (P08908 whole entry): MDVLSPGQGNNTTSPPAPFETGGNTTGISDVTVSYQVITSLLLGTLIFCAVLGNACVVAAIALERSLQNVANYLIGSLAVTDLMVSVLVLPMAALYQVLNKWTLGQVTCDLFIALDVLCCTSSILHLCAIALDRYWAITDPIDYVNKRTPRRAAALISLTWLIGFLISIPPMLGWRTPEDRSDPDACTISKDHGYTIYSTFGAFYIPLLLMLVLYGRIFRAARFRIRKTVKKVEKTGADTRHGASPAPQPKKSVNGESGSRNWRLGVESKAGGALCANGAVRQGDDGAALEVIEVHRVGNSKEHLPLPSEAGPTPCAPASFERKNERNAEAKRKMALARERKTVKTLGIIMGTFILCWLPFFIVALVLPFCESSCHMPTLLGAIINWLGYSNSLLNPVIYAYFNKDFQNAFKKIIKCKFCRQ
# CB2R (Homo sapiens, UniProt P34972), sequence (P34972 whole entry): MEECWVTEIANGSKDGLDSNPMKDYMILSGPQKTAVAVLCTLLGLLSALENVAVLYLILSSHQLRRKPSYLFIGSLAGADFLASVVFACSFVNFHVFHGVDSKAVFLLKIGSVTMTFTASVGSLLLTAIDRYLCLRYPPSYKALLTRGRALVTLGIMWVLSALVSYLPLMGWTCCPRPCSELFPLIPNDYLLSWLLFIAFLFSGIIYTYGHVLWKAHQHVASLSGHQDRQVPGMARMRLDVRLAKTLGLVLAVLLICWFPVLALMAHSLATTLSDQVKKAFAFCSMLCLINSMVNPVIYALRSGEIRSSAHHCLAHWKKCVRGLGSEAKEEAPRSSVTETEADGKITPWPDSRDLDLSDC
# T2 sequence (P47936 whole entry): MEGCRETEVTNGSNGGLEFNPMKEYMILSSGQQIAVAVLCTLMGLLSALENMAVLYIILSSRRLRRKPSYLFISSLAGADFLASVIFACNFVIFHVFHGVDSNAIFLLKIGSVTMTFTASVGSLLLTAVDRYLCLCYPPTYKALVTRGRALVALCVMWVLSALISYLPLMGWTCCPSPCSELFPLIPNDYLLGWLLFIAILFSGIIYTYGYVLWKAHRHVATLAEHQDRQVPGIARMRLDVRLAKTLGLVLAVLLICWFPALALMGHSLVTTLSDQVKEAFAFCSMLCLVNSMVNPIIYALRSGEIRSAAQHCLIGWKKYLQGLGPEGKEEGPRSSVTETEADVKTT
molecule,measurement,setting,value
"CCCCC/C=C\C/C=C\C/C=C\C/C=C\CCCCOC(CO)CO [2-AGE, 2-arachidonyl glyceryl ether]",Ki,CB1R; read-out: Ki,0.0212 µM
C=C(C)[C@@H]1CCC(CO)=C[C@H]1c1c(O)cc(CCCCC)cc1O [7-OH-CBD],SARS-CoV-2 replication,SARS-CoV-2 [1],block SARS-CoV-2 replication
Oc1cc(O)c2c(c1)O[C@H](c1cc(O)c(O)c(O)c1)[C@H](O)C2 [(−)-epigallocatechin],concentrations at which binding to human CBR was shown,human CBR,high μM concentrations
"CCCCCc1cc(O)c2c(c1)OC(C)(CCC=C(C)C)C=C2 (centres unmarked) [CBC, cannabichromene]",potency relative to CBD,[2],up to 10 times
"C=C(C)[C@@H]1CCC(C)=C[C@H]1c1c(O)cc(CCCCC)cc1O [CBD, Cannabidiol]",concentration that synergistically enhances other 5-HT1A receptor agonists,5-HT1A receptor,100 nM
same,concentrations at which the 5-HT1A receptor is activated,5-HT1A receptor,above 10 μM
same,sublingually absorbed,[3],up to 35%
same,ranked potency of detrusor contraction inhibition,mouse bladder,"CBG=THCV>CBD>CBDV, but not CBC"
same,SARS-CoV-2 infection incidence,SARS-CoV-2 [4],significantly lower
same,time of peak brain concentration,[5],6 h
same,time of peak serum level,[5],1 h
same,reduction in seizures rate,[6],50%
same,"degradation, average values","effect of light, after 30 days",up to 15%
same,"degradation, average values",stored at 37° C. for 30 days,up to 20%
same,SARS-CoV-2 replication,SARS-CoV-2 [1],block SARS-CoV-2 replication
same,physical withdrawal symptoms,[7],No physical withdrawal symptoms were observed
C=C(C)[C@@H]1CCC(C)=C[C@H]1c1c(O)cc(CCCCC)c(C(=O)O)c1O [CBDA],affinity for the spike protein,SARS-CoV-2 spike protein [8],micromolar affinity
same,entry of live SARS-CoV-2 into cells,live SARS-CoV-2,prevented entry
same,infection of human epithelial cells by pseudovirus,[9],prevented infection
"C=C(C)[C@@H]1CCC(C)=C[C@H]1c1c(O)cc(CCC)cc1O [CBDV, Cannabidivarin]",ranked potency of detrusor contraction inhibition,mouse bladder,"CBG=THCV>CBD>CBDV, but not CBC"
same,time of peak brain concentrations,[10],30 min
C=C(C)[C@@H]1CCC(C)=C[C@H]1c1c(O)cc(CCC)c(C(=O)O)c1O [CBDVA],time of peak brain concentrations,[10],15 min
"CCCCCc1cc(O)c(C/C=C(\C)CCC=C(C)C)c(O)c1 [CBG, cannabigerol]",acetylcholine-induced contractions,human bladder,reduce acetylcholine-induced contractions
same,efficacy in murine systemic infection model,[11]; MRSA,demonstrate in vivo efficacy
same,MRSA biofilm formation,"[11]; mouse, in vivo",represses MRSA biofilm formation
same,adverse effects monitored by blood testing,[12],no adverse effects
same,appetite,[13],increased appetite
same,ranked potency of detrusor contraction inhibition,mouse bladder,"CBG=THCV>CBD>CBDV, but not CBC"
same,rotarod performance,[14],significantly recovered their rotarod performance
same,time of peak brain concentrations,[10],120 min
same,effect on hyperthermia-induced seizures,[15],Neither CBG nor CBGV affected thresholds
same,bioavailability,[16]; oral ingestion,13-19%
same,bioavailability,[16]; sublingual administration,13-56%
same,bioavailability,[16]; topical applications,5-10%
"CCCCCc1cc(O)c(C/C=C(\C)CCC=C(C)C)c(O)c1C(=O)O [CBGA, cannabigerolic acid]",adverse effects monitored by blood testing,[12],no adverse effects
same,oral absorption,[12]; with or without food,orally absorbed significantly better than CBG
same,affinity for the spike protein,SARS-CoV-2 spike protein [8],micromolar affinity
same,entry of live SARS-CoV-2 into cells,live SARS-CoV-2,prevented entry
same,potency against SOCE (blocking CRAC currents),[17],dose-dependent high potency
same,time of peak brain concentrations,[10],45 min
same,infection of human epithelial cells by pseudovirus,[9],prevented infection
same,effect on hyperthermia-induced seizures,[15],more effective for seizures triggered by a febrile event than CBD
"CCCc1cc(O)c(C/C=C(\C)CCC=C(C)C)c(O)c1 [CBGV, cannabigerovarin]",time of peak brain concentrations,[10],30 min
same,effect on hyperthermia-induced seizures,[15],Neither CBG nor CBGV affected thresholds
"CCCc1cc(O)c(C/C=C(\C)CCC=C(C)C)c(O)c1C(=O)O [CBGVA, cannabigerovarinic acid]",time of peak brain concentrations,[10],15 min
"Nc1ncnc2c1ncn2[C@@H]1O[C@H](CO)C[C@H]1O [Cordycepin, 3′-deoxyadenosine]",binding affinity,SARS-CoV-2 spike protein [18],−145.3
same,binding affinity,[19],−180.5
C=CCc1ccc(O)c(OC)c1 [Eugenol],concentration inducing apoptosis,HL-60 leukemia cells,40 µmol/L
same,concentration inhibiting melanoma growth,melanoma,0.5 to 2.5 µmol⁻¹
same,concentration leading to translocation of phospho-Ser15-p53 into mitochondria,mast cells,700 µmol/L
CC(C)=CCC/C(C)=C/CO [Geraniol],bioavailability,[20],92%
C[C@H]1CC[C@@H](C(C)(C)O)CC2=C1CC[C@@H]2C [Guaiol],Shelf Life,[21],≥ 12 month(s)
"CCCCCc1cc(OC)c(C/C=C(\C)CCC=C(C)C)c(OC(=O)CCN2CCOCC2)c1 [HUM-234, Monomethoxycannabigeroyl-β-morpholinoproprionate]",obesity,[22]; mice fed a high-fat diet (HFD),prevents obesity
same,TNF-α levels,"[22]; mouse, in vivo",increases TNF-α at higher doses
C[C@@H](O)CC(=O)O [R-BHB],inhibition of insulin-mediated phosphorylation of protein kinase B,protein kinase B,50%
CCCCCc1cc(O)c(C/C=C(\C)CC/C=C(\C)CCC=C(C)C)c(O)c1 [Sesquicannabigerol],affinity at CB2R higher than CBG,CB2R [23]; relative to CBG,5 fold
"CCCCCc1cc(OC(=O)CCC(=O)O)c2c(c1)OC(C)(C)[C@@H]1CCC(C)=C[C@@H]21 [THC-HS, THC-hemisuccinate]",bioavailability,[16]; rectal,70-80%
"CCCc1cc(O)c2c(c1)OC(C)(C)[C@@H]1CCC(C)=C[C@@H]21 [THCV, tetrahydrocannabivarin]",ranked potency of detrusor contraction inhibition,mouse bladder,"CBG=THCV>CBD>CBDV, but not CBC"
same,time of peak brain concentrations,[10],30 min
same,effect on hyperthermia-induced seizures,[15],resulted in seizures at lower temperature thresholds
O=C(O[C@@H]1Cc2c(O)cc(O)cc2O[C@@H]1c1cc(O)c(O)c(O)c1)c1cc(O)c(O)c(O)c1 [epigallocatechin β-gallate],concentrations at which binding to human CBR was shown,human CBR,high μM concentrations
CC(C)=CCC[C@@H](C)[C@@H]1CC[C@]2(C)C3=C(CC[C@@]12C)[C@@]1(C)CC[C@H](O)C(C)(C)[C@@H]1CC3 [euphol],IC50,[24]; read-out: IC50,0.315 µM
C=C[C@H](O)C#CC#CC/C=C\CCCCCCC [falcarinol],Ki,"CB1R; read-out: Ki value, CB1R",< 1 µM
C=C(C)[C@H]1CC=C(C)CC1 [limonene],increase in motility,mice,35.25%
C=CC(C)(O)CCC=C(C)C (centres unmarked) [linalool],reduction in motility,mice,73%
"O=C(/C=C/C=C/c1ccc2c(c1)OCO2)N1CCCCC1 [piperine, Piperine]",increase in oral bioavailability of CBD,[25],~2.5 fold
COC(=O)[C@]1(C)CC[C@]2(C)CC[C@]3(C)C4=CC=C5C(=CC(=O)C(O)=C5C)[C@]4(C)CC[C@@]3(C)[C@@H]2C1 [pristimerin],IC50,[24],0.093 µM
C=C1CC/C=C(\C)CC[C@@H]2[C@@H]1CC2(C)C [β-caryophyllene],anti-inflammatory and analgesic effects,CB2R [26],strong anti-inflammatory and analgesic effects in wild-type mice but not in CB2 receptor knockout mice
same,Tmax,[27]; one single oral administration,> 1 h
same,maximal onset,[27]; orally administered,1 h
same,Ki,"CB2R [23]; CB2R, full agonist",0.155 µM
CC[C@H](CC[C@@H](C)[C@H]1CC[C@H]2[C@@H]3CC=C4C[C@@H](O)CC[C@]4(C)[C@H]3CC[C@]12C)C(C)C [β-sitosterol],reduction of chronic edema,[28],41%
same,reduction of topical inflammation,[28],65%
pinene,increase in motility,mice,13.77%
